Common to all, as to assay: NCI anticancer screen, dose series, 48 h
Experiment [1] has as its system A498.
The test system of experiment [2] is HL-60.
For experiment [3], the system named is HOP-92.
Experiment [4] concerns HT-29.
Experiment [5] has as its system MCF7.
Experiment [6] has as its system MDA-MB-435.
For experiment [7], the system named is MOLT-4.
For experiment [8], the system named is Malme-3M.
Experiment [9] relates to NCI-H226.
Experiment [10] relates to OVCAR-3.
Experiment [11] deals with OVCAR-4.
Experiment [12] concerns OVCAR-5.
Experiment [13] has as its system RXF 393.
Experiment [14] concerns SF-295.
For experiment [15], the system named is SK-MEL-5.
Experiment [16] relates to SNB-75.
The subject of experiment [17] is SR.
Experiment [18] relates to UACC-257.
Experiment [19] deals with UACC-62.
Experiment [20] relates to HCC 2998.

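Protocol summary: plate cells (96-well), add compound at 5 concentrations, incubate 48 h, interpolate endpoints linearly. GI50 is the concentration that inhibits growth by half.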 Activity calls are given as the source filed them. Cut-off read from the data, not from the text of the source: active = GI50 up to about 1.1 µM and inactive = higher. A value given as a limit tells only on which side of the number the result lay.

`O=C(O)/C(Cc1ccnc2ccccc12)=N\O`: the GI50 in [1], in [2], in experiment [3], in experiment [4], in [5] and in experiment [6] was > 100 µM (inactive) each time. The GI50 in [7], in experiment [8], in experiment [9], in experiment [10], in experiment [11] and in [12] was > 100 µM (inactive) each time. Also, the GI50 in experiment [13], in [14], in experiment [15], in experiment [16], in [17] and in experiment [18] was > 100 µM (inactive) throughout. In [19], the GI50 was > 100 µM (inactive).
Turning to `O=[N+]([O-])c1ccccc1S(=O)(=O)c1cccc2c1NCCC2`, the GI50 in experiment [1] is > 100 µM (inactive); in [20] it was 56.8 µM (inactive); in experiment [2] it was 24 µM (inactive); in experiment [3], 32.7 µM (inactive); in [4], 29.7 µM (inactive); in experiment [5], 38.4 µM (inactive). Besides, the GI50 in [6] was 27.7 µM (inactive); in [7], 21.5 µM (inactive); in [8] it was 48.1 µM (inactive); in [9] it was 91 µM (inactive); in experiment [10], 40.6 µM (inactive); in experiment [11], > 100 µM (inactive). For the same molecule, the GI50 in experiment [12] is > 100 µM (inactive); in experiment [13], 37.8 µM (inactive); in [14] it was 31.5 µM (inactive); in experiment [15], 19.7 µM (inactive); in experiment [16], 14.8 µM (inactive); in [17], 48.2 µM (inactive). Moreover, the results for the GI50 in [18] and in [19] were 18 µM (inactive) and 24.2 µM (inactive), respectively.
For the molecule `COC(=O)c1ccccc1/N=C(/NC1CCCCCC1)NS(=O)(=O)c1ccc(C)cc1`, the GI50 in experiment [1] was > 100 µM (inactive); in [20], > 100 µM (inactive); in [2] it was 96.2 µM (inactive); in experiment [3] it was 89.7 µM (inactive); in experiment [4] it was > 100 µM (inactive); in [5] it was 99.1 µM (inactive). Besides, the GI50 in experiment [6], in [7], in experiment [9], in [10], in experiment [11] and in [12] was > 100 µM (inactive) each time. Moreover, the GI50 in experiment [13] was > 100 µM (inactive); in [14] it was 26.4 µM (inactive); in [15], > 100 µM (inactive); in [16], > 100 µM (inactive); in [17], > 100 µM (inactive); in experiment [18], > 100 µM (inactive). Also, the GI50 in [19] is > 100 µM (inactive).
For `Cc1ccc2oc3c(ccc(=O)n3C)c(=O)c2c1`, the GI50 in experiment [1], in experiment [20], in [2], in experiment [3], in experiment [4] and in [5] was > 100 µM (inactive) in each case. The GI50 in experiment [6], in experiment [8], in [9], in experiment [10], in [11] and in experiment [12] was > 100 µM (inactive) each time. In addition, the GI50 in experiment [13], in [14], in experiment [15], in experiment [16], in [17] and in experiment [19] was > 100 µM (inactive) throughout.
Consider `OC1(c2ccccc2)CC2CCC(C1)N2CCc1ccccc1` (centres undefined), for which the GI50 in experiment [1] was 19 µM (inactive); in [20], 58.3 µM (inactive); in experiment [2] it was 58.9 µM (inactive); in [3], 43.8 µM (inactive); in experiment [4], 23.8 µM (inactive); in experiment [5], 28.6 µM (inactive). The GI50 in [6] is 55.5 µM (inactive); in experiment [7] it was 29.7 µM (inactive); in [8], > 100 µM (inactive); in [9], 61 µM (inactive); in experiment [10], 85.5 µM (inactive); in experiment [11] it was 72.8 µM (inactive). In addition, the GI50 in [12] is 26.1 µM (inactive); in [13], > 100 µM (inactive); in experiment [14], 34.6 µM (inactive); in [15], 13.7 µM (inactive); in experiment [16] it was > 100 µM (inactive); in experiment [17] it was > 100 µM (inactive). The GI50 is 24.5 µM (inactive) in experiment [18] and 80.4 µM (inactive) in experiment [19].
On to `COC(=O)[C@@H]1C=C[C@H](NC(C)=O)C1`, for which the GI50 in [1], in experiment [20], in experiment [3], in experiment [4], in [5] and in experiment [6] was > 100 µM (inactive) each time. In addition, the GI50 in experiment [7], in experiment [8], in experiment [9], in [10], in experiment [11] and in [12] was > 100 µM (inactive) throughout. In addition, the GI50 in experiment [13], in experiment [14], in experiment [15], in [16], in experiment [17] and in experiment [18] was > 100 µM (inactive) in each case. The GI50 in experiment [19] was > 100 µM (inactive).
In the case of `COC(=S)OC1CC(n2cnc3c(N)ncnc32)OC1CO[Si](C)(C)C(C)(C)C` (centres undefined), the GI50 in experiment [1] was 22 µM (inactive); in [2], > 100 µM (inactive); in experiment [3] it was 31 µM (inactive); in [4], 16.5 µM (inactive); in experiment [5], 19.1 µM (inactive); in [6] it was 17 µM (inactive). Moreover, the GI50 in experiment [7] was 5.24 µM (inactive); in experiment [8], 31.5 µM (inactive); in experiment [9] it was 21.8 µM (inactive); in [10] it was 15.3 µM (inactive); in experiment [11] it was 16.6 µM (inactive); in experiment [12] it was 20.6 µM (inactive). The GI50 in experiment [13] was 12.1 µM (inactive); in experiment [14] it was 17.1 µM (inactive); in experiment [17], 17.5 µM (inactive); in experiment [18] it was 21.3 µM (inactive); in [19] it was 10.6 µM (inactive).
Take `COc1cccc2c1C(=O)c1c(O)c3c(c(O)c1C2=O)C[C@@](O)(C(=O)CO)C[C@@H]3OC1CC(N2CCOCC2)C(O)C(C)O1` (some centres undefined): the GI50 in experiment [1] was 0.00315 µM (active); in experiment [20], 0.0127 µM (active); in experiment [2] it was 0.0025 µM (active); in [3], 0.00975 µM (active); in experiment [4], 0.00628 µM (active); in experiment [5] it was 0.0025 µM (active). Also, the GI50 was 0.0478 µM (active) in experiment [6]; 0.00333 µM (active) in experiment [7]; 0.00259 µM (active) in experiment [8]; 0.00562 µM (active) in experiment [9]; 0.0025 µM (active) in [10]; 0.0201 µM (active) in [11]. For the same molecule, the GI50 in [12] was 0.00275 µM (active); in experiment [13], 0.00396 µM (active); in [14], 0.0025 µM (active); in experiment [15], 0.0025 µM (active); in [16], 0.0025 µM (active); in experiment [17] it was 0.00466 µM (active). Moreover, in experiment [18], the GI50 was 0.00267 µM (active).
As for `COc1nc2cccc(C(O)c3ccccc3)c2nc1-c1ccccc1` (centres undefined), the GI50 in [1] is 2.81 µM (inactive); in experiment [2] it was 3.18 µM (inactive); in [3], 6.92 µM (inactive); in [4], 5.18 µM (inactive); in experiment [5], 4.47 µM (inactive); in experiment [6] it was 1.78 µM (inactive). For the same molecule, the GI50 is 5.11 µM (inactive) in experiment [7]; 17 µM (inactive) in [8]; 3.8 µM (inactive) in experiment [9]; 3.91 µM (inactive) in experiment [10]; 10.1 µM (inactive) in [11]; 11 µM (inactive) in experiment [12]. Also, the GI50 was 3.64 µM (inactive) in [13]; 2.08 µM (inactive) in [14]; 3.56 µM (inactive) in experiment [15]; 9.12 µM (inactive) in experiment [16]; 1.75 µM (inactive) in experiment [17]; 5.89 µM (inactive) in experiment [18]. Further, the GI50 in experiment [19] was 5.92 µM (inactive).
Take `NNC(=O)CCc1ccc2ccc3ccccc3c2c1`: the GI50 in experiment [1] is 49.2 µM (inactive); in experiment [20] it was > 100 µM (inactive); in experiment [2], 0.312 µM (active); in [3], 58.7 µM (inactive); in [4], > 100 µM (inactive); in experiment [5], > 100 µM (inactive). In addition, the GI50 is > 100 µM (inactive) in experiment [6]; 63.5 µM (inactive) in experiment [7]; 79.1 µM (inactive) in [8]; 15.9 µM (inactive) in experiment [9]; 29.9 µM (inactive) in [10]; 74.6 µM (inactive) in experiment [11]. Moreover, the GI50 is > 100 µM (inactive) in [12]; 94.4 µM (inactive) in experiment [13]; 78.7 µM (inactive) in experiment [14]; 92.3 µM (inactive) in experiment [15]; > 100 µM (inactive) in [17]; > 100 µM (inactive) in [18]. In addition, the GI50 in [19] is > 100 µM (inactive).

(Values after ChEMBL document CHEMBL1201862, “PubChem BioAssay data set” (2004).)
